{"source": "patent US11752116B2", "about": "“Method of viral inhibition” (priority 2013, dated 2023)", "key": {"CHIKV": {"system": "CHIKV", "assay": "CHIKV infection of HEK293T cells, plaque assay", "assay_type": "cell-based", "conditions": "5 μM, 24 h p.i.", "method": "HEK293T cells were treated with 5 μM 4-HPR or 4-MPR for 2 h, then infected with CHIKV for 1 h (MOI of 0.1) in the absence of compound (FIG. 9A). Alternatively, HEK293T cells were infected with CHIKV for 1 h (MOI of 0.1) without pre-treating the cells with compound (FIG. 9B). In both instances, virus inoculums were removed, then fresh medium containing the indicated compound was added (FIG. 9A and FIG. 9B). Infectious virus titres were determined by plaque assay 24 h p.i. Data are the mean+standard deviation of one experiment performed in duplicate wells, represented as plaque forming units per ml (PFU/ml)."}, "DENV-1 [1]": {"system": "DENV-1", "assay": "ADE-mediated DENV-1 infection of human PBMCs, plaque assay", "assay_type": "cell-based", "conditions": "ADE-mediated DENV-1 infection, 48 h", "method": "The antiviral activity of 4-HPR was investigated in the more physiologically relevant human system of peripheral blood mononuclear cells (PBMCs), a major target of DENV infection in humans.\nPBMCs were prepared from a healthy donor buffy coat using a Ficoll gradient, prior to ADE-mediated DENV-1 infection (MOI of 10) in the presence of increasing concentrations of 4-HPR or 4-MPR, and infectious virus titres determined by plaque assay 48 h later."}, "DENV-2 [2]": {"system": "DENV-2", "assay": "Cell-based flavivirus immunodetection assay in BHK-21 cells, DENV-2", "conditions": "BHK-21 cells, 48 h p.i.", "method": "(§1) To investigate this, BHK-21 cells were infected with DENV serotypes 1, 2, 3 or 4 (MOI of 0.3) for 1 h in the presence of 4-HPR or 4-MPR (concentrations as indicated in FIG. 6A). Virus inoculum was removed and fresh media containing the indicated compounds was added. Virus infection rates were determined 48 h p.i. using a cell-based flavivirus immunodetection assay. Briefly, cells were fixed and stained for DENV structural protein, E, followed by addition of Alexa Fluor 488 anti-mouse IgG. Viral antigen quantification was performed using Imagexpress. Data shown are representative of a single experiment"}, "DENV-3": {"system": "DENV-3", "assay": "Cell-based flavivirus immunodetection assay in BHK-21 cells, DENV-3", "conditions": "48 h p.i.", "method": "as §1"}, "DENV-1 [3]": {"system": "DENV-1", "assay": "Cell-based flavivirus immunodetection assay in BHK-21 cells, DENV-1", "conditions": "48 h p.i.", "method": "as §1"}, "[4]": {"system": "West Nile virus, Kunjin strain (WNVKUN)", "assay": "West Nile virus (Kunjin strain) infection of Vero cells, plaque assay", "assay_type": "cell-based", "conditions": "Vero cells", "method": "FIG. 9C. Viral titre from a plaque assay conducted from Vero cells infected with West Nile virus (Kunjin strain; WNVKUN) after treatment with 10 μM 4-HPR for 4 h."}, "DENV-2 NS5 / IMPα/β": {"biological_target": "DENV-2 NS5 / IMPα/β (Dengue virus type 2, UniProt P14340)", "assay": "AlphaScreen binding of His6-NS5 to IMPα/β heterodimer", "conditions": "3 nM His6-NS5, 10 nM IMPα/β, increasing concentrations of compound", "method": "AlphaScreen®, a luminescent bead-based assay that measures direct protein-protein interactions, was used to examine the binding of 3 nM His6-NS5 to 10 nM IMPα/β (IMPα/β heterodimer containing biotinylated IMPβ1) in the presence of increasing concentrations of 4-HPR, 4-MPR or ATRA (FIG. 1A), or 4-oxo-4-HPR, 4-HPR or 4-MPR (FIG. 1B). Data are the mean±standard deviation (SD) of triplicate wells from a single typical experiment.\nTo investigate the specificity of 4-HPR inhibition of NS5-importin association, the binding of 30 nM His6-NS5 to 10 nM IMPα/β, (IMPα/β heterodimer containing biotinylated IMPβ1), 3 nM IMPαΔIBB (biotinylated IMPa with the IMPβ-binding domain removed), or 3 nM biotinylated IMPβ1, in the presence of increasing concentrations of 4-HPR, was investigated."}, "DENV-4": {"system": "DENV-4", "assay": "Cell-based flavivirus immunodetection assay in BHK-21 cells, DENV-4", "conditions": "BHK-21 cells, 48 h p.i.", "method": "as §1"}, "DENV-2 [5]": {"system": "DENV-2", "assay": "Delayed addition in DENV-2 infected Huh-7 cells, NS1 RNA by qPCR", "assay_type": "cell-based", "method": "To gain further insight into the mode of action of 4-HPR, the human liver carcinoma cell line, Huh-7 cells were infected with DENV-2 (MOI of 1), followed by delayed addition of drug diluent DMSO (DENV only), 7.5 μM 4-HPR, 7.5 μM 4-MPR or 10 μM NITD008 (a previously described adenosine nucleoside inhibitor), 12 h post infection. Cells were lysed at the indicated times, RNA was extracted by Trizol and analysed by qPCR with fold change in expression of NS1 calculated relative to the untreated control (FIG. 5B). Concurrently, culture medium was collected and viral titres determined by plaque assay (FIG. 5C)."}, "DENV-2 [6]": {"system": "DENV-2", "assay": "DENV-2 infectivity assay in Vero cells, viral RNA copies in culture medium by RT-PCR", "assay_type": "cell-based", "conditions": "MOI of 1; for effect on DENV infection (viral RNA copies at 24 h p.i.): 10 μM compound", "method": "To test the specificity of 4-HPR and 4-oxo-4-HPR for anti-DENV activity Vero cells were infected with DENV-2 with a multiplicity of infection (MOI) of 1, in the presence of drug diluent (untreated) or the indicated compounds (10 μM in FIG. 3A, or 10 μM or 5 μM as indicated in FIG. 3B) for 2 h, followed by removal of the virus/drug inoculums, and addition of fresh 2% FCS maintenance medium. At 24 h post infection (p.i.) the culture medium was collected and the viral RNA extracted using QIAamp viral RNA mini kit (Qiagen). Absolute RNA copies present in each sample were determined by Taqman One Step RT-PCR (Applied Biosystems), as an estimate of virus titre by extrapolation from a standard curve generated from in vitro transcribed DENV RNA. Data shown are the mean+standard error of the mean (SEM) for 3 (FIG. 3A) or 2 (FIG. 3B) independent experiments. Statistical analysis (Student's ttest) was performed using GraphPad Prism software."}}, "data": [{"smiles": "COc1ccc(NC(=O)/C=C(C)/C=C/C=C(C)/C=C/C2=C(C)CCCC2(C)C)cc1", "note": "[4-MPR, N-(4-methoxyphenyl) retinamide]", "values": [{"measurement": "reduction of infectious CHIKV produced", "setting": "CHIKV; HEK293T cells pre-treated 2 h with compound", "result": "did not reduce CHIKV titres"}, {"measurement": "reduction of infectious CHIKV produced", "setting": "CHIKV; HEK293T cells, compound added after infection", "result": "did not reduce CHIKV titres"}, {"measurement": "reduction of infectious virus titre in infected PBMCs", "setting": "DENV-1 [1]", "result": "no reduction"}, {"measurement": "effect on replication of DENV serotype 2", "setting": "DENV-2 [2]", "result": "did not have any effect"}, {"measurement": "effect on replication of DENV serotype 3", "setting": "DENV-3", "result": "did not have any effect"}, {"measurement": "effect on replication of DENV serotype 1", "setting": "DENV-1 [3]", "result": "did not have any effect"}, {"measurement": "antiviral activity against WNVKUN", "setting": "[4]", "result": "no antiviral activity"}, {"measurement": "block of association of DENV-2 NS5 with IMPα/β", "setting": "DENV-2 NS5 / IMPα/β", "result": "neither ATRA nor 4-MPR were able to disrupt association"}, {"measurement": "effect on replication of DENV serotype 4", "setting": "DENV-4", "result": "did not have any effect"}, {"measurement": "viral RNA levels (NS1 qPCR)", "setting": "DENV-2 [5]; 7.5 μM added 12 h p.i., up to 60 h p.i.", "result": "viral RNA levels increased steadily until 60 h p.i."}, {"measurement": "effect on DENV infection (viral RNA copies at 24 h p.i.)", "setting": "DENV-2 [6]", "result": "no effect on DENV infection"}]}, {"smiles": "CC1=C(/C=C/C(C)=C/C=C/C(C)=C/C(=O)Nc2ccc(O)cc2)C(C)(C)CCC1=O", "note": "[4-oxo-4-HPR, N-(4-hydroxyphenyl)-4-oxoretinamide]", "values": [{"measurement": "block of association of DENV-2 NS5 with IMPα/β", "setting": "DENV-2 NS5 / IMPα/β", "result": "able to block association"}, {"measurement": "reduction in viral RNA copies at 24 h p.i.", "setting": "DENV-2 [6]; 5 μM compound for 2 h during infection", "result": 1, "unit": "log"}]}, {"smiles": "CC1=C(/C=C/C(C)=C/C=C/C(C)=C\\C(=O)O)C(C)(C)CCC1", "note": "[13-cis retinoic acid]", "values": [{"measurement": "effect on DENV infection (viral RNA copies at 24 h p.i.)", "setting": "DENV-2 [6]", "result": "no effect on DENV infection"}]}, {"smiles": "CC1=C(/C=C/C(C)=C/C=C/C(C)=C/C(=O)O)C(C)(C)CCC1", "note": "[ATRA, all-trans retinoic acid]", "values": [{"measurement": "block of association of DENV-2 NS5 with IMPα/β", "setting": "DENV-2 NS5 / IMPα/β", "result": "neither ATRA nor 4-MPR were able to disrupt association"}, {"measurement": "effect on DENV infection (viral RNA copies at 24 h p.i.)", "setting": "DENV-2 [6]", "result": "no effect on DENV infection"}]}, {"smiles": "C#C[C@@]1(O)[C@H](O)[C@@H](CO)O[C@H]1n1ccc2c(N)ncnc21", "note": "[NITD008]", "values": [{"measurement": "viral RNA levels (NS1 qPCR)", "setting": "DENV-2 [5]; 10 μM added 12 h p.i.", "result": "reduced RNA levels"}]}, {"smiles": "C/C(=C\\c1ccc(C(=O)O)cc1)c1ccc2c(c1)C(C)(C)CCC2(C)C", "note": "[arotinoid acid]", "values": [{"measurement": "effect on DENV infection (viral RNA copies at 24 h p.i.)", "setting": "DENV-2 [6]", "result": "no effect on DENV infection"}]}]}
